{"source": "ChEMBL document CHEMBL5291721", "about": "“A preclinical secondary pharmacology resource illuminates target-adverse drug reaction associations of marketed drugs” (Nat Commun, 2023); note: assay procedure not described here", "key": {"Adenosine receptor A1": {"target": "T1, Adenosine receptor A1 (Homo sapiens, UniProt P30542)", "T1 sequence (P30542 whole entry)": "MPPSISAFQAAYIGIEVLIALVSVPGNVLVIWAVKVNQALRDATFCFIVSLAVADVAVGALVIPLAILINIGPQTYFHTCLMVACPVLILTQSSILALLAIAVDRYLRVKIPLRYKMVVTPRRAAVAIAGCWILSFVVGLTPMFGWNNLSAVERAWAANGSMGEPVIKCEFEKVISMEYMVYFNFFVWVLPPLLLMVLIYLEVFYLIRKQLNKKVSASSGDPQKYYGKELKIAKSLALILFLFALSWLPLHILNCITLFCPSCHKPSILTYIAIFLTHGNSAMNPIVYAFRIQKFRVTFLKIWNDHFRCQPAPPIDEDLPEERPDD"}, "[1]": {"target": "T2, Alpha-2C adrenergic receptor (Homo sapiens, UniProt P18825)", "T2 sequence (P18825 whole entry)": "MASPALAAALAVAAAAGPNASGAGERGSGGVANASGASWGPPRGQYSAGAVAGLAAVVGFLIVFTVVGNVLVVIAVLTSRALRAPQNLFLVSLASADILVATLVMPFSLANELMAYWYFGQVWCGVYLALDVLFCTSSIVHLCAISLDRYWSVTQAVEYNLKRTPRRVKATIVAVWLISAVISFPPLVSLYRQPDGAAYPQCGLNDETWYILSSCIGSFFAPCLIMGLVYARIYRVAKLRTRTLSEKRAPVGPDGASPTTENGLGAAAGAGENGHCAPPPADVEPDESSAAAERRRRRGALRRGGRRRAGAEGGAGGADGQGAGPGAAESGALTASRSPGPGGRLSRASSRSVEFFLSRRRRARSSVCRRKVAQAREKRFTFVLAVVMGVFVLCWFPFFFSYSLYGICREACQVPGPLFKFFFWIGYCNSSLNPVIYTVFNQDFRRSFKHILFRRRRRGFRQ", "type": "functional"}, "[2]": {"target": "Beta-1 adrenergic receptor (Homo sapiens, UniProt P08588)", "sequence (P08588 whole entry)": "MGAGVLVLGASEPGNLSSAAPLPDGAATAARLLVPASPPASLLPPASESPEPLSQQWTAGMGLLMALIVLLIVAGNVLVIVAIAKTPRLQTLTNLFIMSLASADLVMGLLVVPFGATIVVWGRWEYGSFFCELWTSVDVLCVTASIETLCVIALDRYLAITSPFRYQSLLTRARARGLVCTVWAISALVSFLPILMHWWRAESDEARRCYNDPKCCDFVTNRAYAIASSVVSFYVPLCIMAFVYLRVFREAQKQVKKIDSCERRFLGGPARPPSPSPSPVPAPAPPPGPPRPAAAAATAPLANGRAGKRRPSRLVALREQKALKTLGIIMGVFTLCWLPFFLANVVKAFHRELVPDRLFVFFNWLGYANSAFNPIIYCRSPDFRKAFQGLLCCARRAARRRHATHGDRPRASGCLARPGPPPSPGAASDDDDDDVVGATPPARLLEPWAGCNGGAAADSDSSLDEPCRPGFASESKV", "type": "functional"}, "[3]": {"target": "T3, Cholecystokinin receptor type A (Homo sapiens, UniProt P32238)", "T3 sequence (P32238 whole entry)": "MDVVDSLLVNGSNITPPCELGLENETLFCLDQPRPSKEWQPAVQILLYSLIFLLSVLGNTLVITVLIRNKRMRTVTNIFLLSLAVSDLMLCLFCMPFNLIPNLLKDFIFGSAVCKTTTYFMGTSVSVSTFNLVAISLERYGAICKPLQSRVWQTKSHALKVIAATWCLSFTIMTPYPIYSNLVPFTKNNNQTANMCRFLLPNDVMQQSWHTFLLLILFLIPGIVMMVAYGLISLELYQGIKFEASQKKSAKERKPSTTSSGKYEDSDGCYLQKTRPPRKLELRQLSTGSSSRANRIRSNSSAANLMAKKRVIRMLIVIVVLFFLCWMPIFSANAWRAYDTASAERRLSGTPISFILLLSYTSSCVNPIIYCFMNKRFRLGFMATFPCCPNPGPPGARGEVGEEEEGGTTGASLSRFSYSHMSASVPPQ"}, "[4]": {"target": "Neuronal acetylcholine receptor subunit alpha-4 (Homo sapiens, UniProt P43681)", "sequence (P43681 whole entry)": "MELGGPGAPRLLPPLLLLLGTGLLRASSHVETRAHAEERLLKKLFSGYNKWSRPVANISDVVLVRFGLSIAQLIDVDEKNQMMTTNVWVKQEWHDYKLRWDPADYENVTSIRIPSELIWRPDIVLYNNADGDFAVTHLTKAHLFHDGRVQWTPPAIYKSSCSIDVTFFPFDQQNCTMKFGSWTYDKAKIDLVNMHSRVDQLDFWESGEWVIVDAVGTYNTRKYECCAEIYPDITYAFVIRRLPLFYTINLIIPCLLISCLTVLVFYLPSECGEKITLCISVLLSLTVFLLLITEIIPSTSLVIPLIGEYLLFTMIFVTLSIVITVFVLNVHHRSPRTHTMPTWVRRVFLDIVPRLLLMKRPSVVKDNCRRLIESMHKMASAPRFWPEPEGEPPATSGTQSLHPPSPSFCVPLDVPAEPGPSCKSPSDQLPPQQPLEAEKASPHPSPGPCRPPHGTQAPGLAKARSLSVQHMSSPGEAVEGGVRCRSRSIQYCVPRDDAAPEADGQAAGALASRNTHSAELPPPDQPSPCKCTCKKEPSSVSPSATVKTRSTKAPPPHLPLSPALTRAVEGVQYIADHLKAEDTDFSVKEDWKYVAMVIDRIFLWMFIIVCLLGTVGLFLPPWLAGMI"}, "[5]": {"target": "Gamma-aminobutyric acid receptor subunit alpha-1 (Rattus norvegicus, UniProt P62813)", "sequence (P62813 whole entry)": "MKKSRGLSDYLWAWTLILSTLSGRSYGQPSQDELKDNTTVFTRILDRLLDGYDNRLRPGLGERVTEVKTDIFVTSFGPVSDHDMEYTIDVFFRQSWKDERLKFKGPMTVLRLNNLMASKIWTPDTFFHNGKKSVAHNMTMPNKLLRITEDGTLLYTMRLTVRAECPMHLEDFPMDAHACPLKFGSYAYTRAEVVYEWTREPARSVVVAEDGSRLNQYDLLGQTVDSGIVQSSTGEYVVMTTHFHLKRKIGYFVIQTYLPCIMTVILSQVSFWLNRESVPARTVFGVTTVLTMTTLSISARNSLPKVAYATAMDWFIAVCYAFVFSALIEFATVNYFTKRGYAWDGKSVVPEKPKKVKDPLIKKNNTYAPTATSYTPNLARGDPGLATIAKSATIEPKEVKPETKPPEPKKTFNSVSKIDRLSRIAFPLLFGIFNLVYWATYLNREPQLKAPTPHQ"}, "[6]": {"target": "Growth hormone secretagogue receptor type 1 (Homo sapiens, UniProt Q92847)", "sequence (Q92847 whole entry)": "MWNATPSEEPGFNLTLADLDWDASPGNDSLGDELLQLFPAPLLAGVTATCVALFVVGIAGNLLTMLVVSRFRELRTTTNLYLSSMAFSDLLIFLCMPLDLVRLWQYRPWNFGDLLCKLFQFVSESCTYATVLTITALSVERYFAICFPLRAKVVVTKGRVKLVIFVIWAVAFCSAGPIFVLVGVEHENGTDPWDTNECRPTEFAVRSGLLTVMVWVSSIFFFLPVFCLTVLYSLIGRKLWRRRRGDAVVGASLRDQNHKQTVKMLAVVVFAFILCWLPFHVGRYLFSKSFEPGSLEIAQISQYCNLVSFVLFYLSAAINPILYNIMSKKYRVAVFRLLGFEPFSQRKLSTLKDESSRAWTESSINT"}, "[7]": {"target": "Glutamate receptor ionotropic, NMDA 1 (Rattus norvegicus, UniProt P35439)"}, "[8]": {"target": "5-hydroxytryptamine receptor 2B (Homo sapiens, UniProt P41595)", "sequence (P41595 whole entry)": "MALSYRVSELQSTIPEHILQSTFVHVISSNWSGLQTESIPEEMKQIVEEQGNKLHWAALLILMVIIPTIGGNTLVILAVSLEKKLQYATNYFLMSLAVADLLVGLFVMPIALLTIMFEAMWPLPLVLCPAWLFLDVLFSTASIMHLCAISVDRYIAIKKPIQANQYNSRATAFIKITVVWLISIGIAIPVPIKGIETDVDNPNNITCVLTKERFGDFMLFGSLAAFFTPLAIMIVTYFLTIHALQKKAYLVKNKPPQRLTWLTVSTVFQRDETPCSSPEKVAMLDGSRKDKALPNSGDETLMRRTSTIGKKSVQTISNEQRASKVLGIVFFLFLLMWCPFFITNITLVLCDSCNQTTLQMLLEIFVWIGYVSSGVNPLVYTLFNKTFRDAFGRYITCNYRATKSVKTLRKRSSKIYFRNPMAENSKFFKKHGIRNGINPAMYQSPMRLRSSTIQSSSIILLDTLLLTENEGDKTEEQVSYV", "type": "functional, cell-based"}, "[9]": {"target": "Kappa-type opioid receptor (Homo sapiens, UniProt P41145)", "sequence (P41145 whole entry)": "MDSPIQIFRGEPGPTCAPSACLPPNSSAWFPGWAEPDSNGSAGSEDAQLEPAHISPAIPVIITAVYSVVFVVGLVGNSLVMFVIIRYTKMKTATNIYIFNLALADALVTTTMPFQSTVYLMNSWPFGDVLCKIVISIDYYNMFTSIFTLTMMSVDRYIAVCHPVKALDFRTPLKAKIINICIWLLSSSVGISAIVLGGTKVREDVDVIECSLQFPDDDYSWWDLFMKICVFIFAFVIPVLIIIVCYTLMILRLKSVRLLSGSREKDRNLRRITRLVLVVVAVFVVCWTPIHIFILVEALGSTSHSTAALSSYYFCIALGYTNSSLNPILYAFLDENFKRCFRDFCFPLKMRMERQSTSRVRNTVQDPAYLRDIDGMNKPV"}, "Progesterone receptor": {"target": "T4, Progesterone receptor (Homo sapiens, UniProt P06401)", "T4 sequence (P06401 whole entry)": "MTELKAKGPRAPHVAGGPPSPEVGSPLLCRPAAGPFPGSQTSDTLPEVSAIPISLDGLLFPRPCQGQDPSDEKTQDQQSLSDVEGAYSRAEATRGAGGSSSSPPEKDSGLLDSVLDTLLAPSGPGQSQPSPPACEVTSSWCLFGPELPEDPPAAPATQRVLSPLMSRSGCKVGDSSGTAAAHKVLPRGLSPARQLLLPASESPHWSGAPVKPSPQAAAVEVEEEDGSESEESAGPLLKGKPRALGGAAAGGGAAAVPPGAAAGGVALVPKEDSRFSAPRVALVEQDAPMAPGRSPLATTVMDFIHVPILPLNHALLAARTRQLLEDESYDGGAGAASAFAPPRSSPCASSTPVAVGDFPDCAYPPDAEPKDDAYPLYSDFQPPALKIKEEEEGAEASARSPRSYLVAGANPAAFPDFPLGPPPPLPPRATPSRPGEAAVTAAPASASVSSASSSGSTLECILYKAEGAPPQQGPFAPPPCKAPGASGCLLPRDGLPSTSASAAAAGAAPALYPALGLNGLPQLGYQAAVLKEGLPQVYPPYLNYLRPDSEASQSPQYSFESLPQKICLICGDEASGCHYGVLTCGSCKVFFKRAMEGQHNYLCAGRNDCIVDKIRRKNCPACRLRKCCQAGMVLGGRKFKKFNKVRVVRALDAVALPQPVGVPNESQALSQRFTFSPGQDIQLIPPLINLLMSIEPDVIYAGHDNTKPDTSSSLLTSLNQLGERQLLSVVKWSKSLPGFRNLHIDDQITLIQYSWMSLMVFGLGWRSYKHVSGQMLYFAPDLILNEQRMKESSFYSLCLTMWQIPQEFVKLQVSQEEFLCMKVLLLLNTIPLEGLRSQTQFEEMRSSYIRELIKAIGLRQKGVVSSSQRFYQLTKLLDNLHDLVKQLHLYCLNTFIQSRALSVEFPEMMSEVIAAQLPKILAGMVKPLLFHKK", "type": "functional"}, "[10]": {"target": "Sodium-dependent dopamine transporter (Homo sapiens, UniProt Q01959)", "sequence (Q01959 whole entry)": "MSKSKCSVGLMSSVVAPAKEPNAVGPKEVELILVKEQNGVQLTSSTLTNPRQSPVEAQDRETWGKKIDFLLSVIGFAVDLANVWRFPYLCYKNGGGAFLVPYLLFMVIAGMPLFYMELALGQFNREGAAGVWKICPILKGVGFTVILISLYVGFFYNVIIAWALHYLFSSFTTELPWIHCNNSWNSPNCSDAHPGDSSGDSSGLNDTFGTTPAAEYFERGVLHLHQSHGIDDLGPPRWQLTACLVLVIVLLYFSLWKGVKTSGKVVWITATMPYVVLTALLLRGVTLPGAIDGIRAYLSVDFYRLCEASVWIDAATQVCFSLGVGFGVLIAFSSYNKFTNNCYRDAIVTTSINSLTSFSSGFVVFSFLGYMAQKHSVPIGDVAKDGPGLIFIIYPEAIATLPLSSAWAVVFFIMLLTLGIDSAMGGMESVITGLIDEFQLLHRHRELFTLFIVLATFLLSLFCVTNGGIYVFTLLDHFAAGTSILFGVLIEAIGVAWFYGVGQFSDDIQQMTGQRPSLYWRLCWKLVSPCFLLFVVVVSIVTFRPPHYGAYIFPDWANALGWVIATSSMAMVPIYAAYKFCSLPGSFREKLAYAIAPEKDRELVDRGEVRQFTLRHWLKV"}, "[11]": {"target": "Sodium-dependent noradrenaline transporter (Homo sapiens, UniProt P23975)", "sequence (P23975 whole entry)": "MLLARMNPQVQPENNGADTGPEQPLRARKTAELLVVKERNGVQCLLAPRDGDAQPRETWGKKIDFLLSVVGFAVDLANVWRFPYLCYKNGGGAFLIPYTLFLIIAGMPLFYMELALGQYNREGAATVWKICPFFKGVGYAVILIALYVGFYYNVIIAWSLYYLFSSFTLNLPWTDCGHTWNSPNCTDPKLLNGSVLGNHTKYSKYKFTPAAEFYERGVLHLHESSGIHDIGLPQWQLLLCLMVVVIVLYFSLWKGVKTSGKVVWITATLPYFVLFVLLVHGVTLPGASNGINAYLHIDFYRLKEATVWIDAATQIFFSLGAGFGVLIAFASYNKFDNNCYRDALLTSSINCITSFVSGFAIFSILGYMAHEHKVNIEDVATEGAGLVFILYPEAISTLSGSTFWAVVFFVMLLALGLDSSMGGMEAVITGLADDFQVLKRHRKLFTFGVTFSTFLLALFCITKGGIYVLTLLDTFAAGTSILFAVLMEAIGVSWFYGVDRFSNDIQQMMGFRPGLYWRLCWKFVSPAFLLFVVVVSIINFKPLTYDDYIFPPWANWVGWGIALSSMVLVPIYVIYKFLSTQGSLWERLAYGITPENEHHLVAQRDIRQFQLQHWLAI"}, "D(3) dopamine receptor": {"target": "D(3) dopamine receptor (Homo sapiens, UniProt P35462)", "sequence (P35462 whole entry)": "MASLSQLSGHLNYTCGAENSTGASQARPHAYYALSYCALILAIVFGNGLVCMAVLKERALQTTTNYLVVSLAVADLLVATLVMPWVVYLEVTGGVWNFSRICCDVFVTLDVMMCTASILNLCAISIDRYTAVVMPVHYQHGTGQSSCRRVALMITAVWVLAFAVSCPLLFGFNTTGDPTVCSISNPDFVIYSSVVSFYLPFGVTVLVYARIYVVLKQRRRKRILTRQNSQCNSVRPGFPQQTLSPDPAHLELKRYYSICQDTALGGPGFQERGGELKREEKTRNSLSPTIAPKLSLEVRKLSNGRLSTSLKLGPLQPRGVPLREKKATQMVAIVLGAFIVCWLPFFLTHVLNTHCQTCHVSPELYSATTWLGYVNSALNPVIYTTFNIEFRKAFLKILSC"}, "Cannabinoid receptor 1": {"target": "Cannabinoid receptor 1 (Homo sapiens, UniProt P21554)", "sequence (P21554 whole entry)": "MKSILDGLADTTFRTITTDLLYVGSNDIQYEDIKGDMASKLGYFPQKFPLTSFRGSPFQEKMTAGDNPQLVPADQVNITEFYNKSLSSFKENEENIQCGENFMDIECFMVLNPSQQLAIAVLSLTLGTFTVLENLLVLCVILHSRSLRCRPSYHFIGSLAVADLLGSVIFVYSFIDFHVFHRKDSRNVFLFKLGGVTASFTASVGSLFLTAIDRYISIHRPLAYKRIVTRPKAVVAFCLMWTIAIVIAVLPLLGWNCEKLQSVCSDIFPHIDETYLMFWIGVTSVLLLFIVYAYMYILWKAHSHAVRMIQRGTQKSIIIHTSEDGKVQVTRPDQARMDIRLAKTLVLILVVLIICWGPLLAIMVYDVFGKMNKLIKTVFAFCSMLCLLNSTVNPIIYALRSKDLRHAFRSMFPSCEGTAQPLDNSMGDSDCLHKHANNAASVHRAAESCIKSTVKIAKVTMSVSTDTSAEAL", "type": "functional, cell-based"}}}
{"compound": "C[C@@H](O)[C@H]1C(=O)N2C(C(=O)O)=C(S[C@@H]3CN[C@H](C(=O)Nc4cccc(C(=O)O)c4)C3)[C@H](C)[C@H]12", "values": [{"measurement": "AC50", "setting": "Adenosine receptor A1", "result": "> 30", "unit": "µM"}]}
{"compound": "CC(=O)OC1CN2CCC1CC2", "note": "(centres undefined) [ACECLIDINE]", "values": [{"measurement": "AC50", "setting": "Adenosine receptor A1", "result": "> 30", "unit": "µM"}]}
{"compound": "CC1=C(/C=C/C(C)=C\\C=C\\C(C)=C\\C(=O)O)C(C)(C)CCC1", "note": "[ALITRETINOIN]", "values": [{"measurement": "AC50", "setting": "Adenosine receptor A1", "result": "> 30", "unit": "µM"}]}
{"compound": "N=C(N)NC(=O)c1nc(Cl)c(N)nc1N", "note": "[AMILORIDE]", "values": [{"measurement": "AC50", "setting": "Adenosine receptor A1", "result": "> 30", "unit": "µM"}, {"measurement": "AC50", "setting": "[1]", "result": "> 30", "unit": "µM"}, {"measurement": "AC50", "setting": "[2]", "result": "> 30", "unit": "µM"}, {"measurement": "AC50", "setting": "[3]", "result": "> 30", "unit": "µM"}, {"measurement": "AC50", "setting": "[4]", "result": "> 30", "unit": "µM"}, {"measurement": "AC50", "setting": "[5]", "result": "> 30", "unit": "µM"}, {"measurement": "AC50", "setting": "[6]", "result": "> 30", "unit": "µM"}, {"measurement": "AC50", "setting": "[7]", "result": "> 30", "unit": "µM"}, {"measurement": "AC50", "setting": "[8]", "result": "> 30", "unit": "µM"}, {"measurement": "AC50", "setting": "[9]", "result": "> 30", "unit": "µM"}, {"measurement": "AC50", "setting": "Progesterone receptor", "result": "> 30", "unit": "µM"}, {"measurement": "AC50", "setting": "[10]", "result": "> 30", "unit": "µM"}, {"measurement": "AC50", "setting": "[11]", "result": "> 30", "unit": "µM"}, {"measurement": "AC50", "setting": "D(3) dopamine receptor", "result": "> 30", "unit": "µM"}]}
{"compound": "CC(=O)Nc1ccc(/C=N/NC(N)=S)cc1", "note": "[AMITHIOZONE]", "values": [{"measurement": "AC50", "setting": "Adenosine receptor A1", "result": "> 30", "unit": "µM"}]}
{"compound": "CC1(C)S[C@@H]2[C@H](NC(=O)[C@H](NC(=O)c3cnc4cccnc4c3O)c3ccccc3)C(=O)N2[C@H]1C(=O)O", "note": "[APALCILLIN]", "values": [{"measurement": "AC50", "setting": "Adenosine receptor A1", "result": "> 30", "unit": "µM"}]}
{"compound": "O=C(OOC(=O)c1ccccc1)c1ccccc1", "note": "[BENZOYL PEROXIDE]", "values": [{"measurement": "AC50", "setting": "Adenosine receptor A1", "result": "> 30", "unit": "µM"}]}
{"compound": "CC(C)(C)NCC(O)COc1ccccc1C#N", "note": "(centres undefined) [BUNITROLOL]", "values": [{"measurement": "AC50", "setting": "Adenosine receptor A1", "result": "> 30", "unit": "µM"}, {"measurement": "AC50", "setting": "[1]", "result": "> 30", "unit": "µM"}, {"measurement": "AC50", "setting": "Cannabinoid receptor 1", "result": "> 30", "unit": "µM"}, {"measurement": "AC50", "setting": "[5]", "result": "> 30", "unit": "µM"}, {"measurement": "AC50", "setting": "[7]", "result": "> 30", "unit": "µM"}, {"measurement": "AC50", "setting": "[8]", "result": "> 30", "unit": "µM"}, {"measurement": "AC50", "setting": "[9]", "result": "> 30", "unit": "µM"}, {"measurement": "AC50", "setting": "D(3) dopamine receptor", "result": "> 30", "unit": "µM"}]}
{"compound": "CC1(C)C[C@@H]1C(=O)N/C(=C\\CCCCSC[C@H](N)C(=O)O)C(=O)O", "note": "[CILASTATIN]", "values": [{"measurement": "AC50", "setting": "Adenosine receptor A1", "result": "> 30", "unit": "µM"}]}
{"compound": "COc1c(OCCCN2CCOCC2)ccc2c1N=C(NC(=O)c1cnc(N)nc1)N1CCN=C21", "note": "[COPANLISIB]", "values": [{"measurement": "AC50", "setting": "Adenosine receptor A1", "result": "> 30", "unit": "µM"}]}
{"compound": "CC1=C(/C=C/C(C)=C/C=C/C(C)=C\\C(=O)O)C(C)(C)CCC1", "note": "[ISOTRETINOIN]", "values": [{"measurement": "AC50", "setting": "Adenosine receptor A1", "result": "> 30", "unit": "µM"}]}
{"compound": "CSCC[C@H](N)C(=O)O", "note": "[METHIONINE]", "values": [{"measurement": "AC50", "setting": "Adenosine receptor A1", "result": "> 30", "unit": "µM"}]}
{"compound": "COCC(=O)O[C@]1(CCN(C)CCCc2nc3ccccc3[nH]2)CCc2cc(F)ccc2[C@@H]1C(C)C", "note": "[MIBEFRADIL]", "values": [{"measurement": "AC50", "setting": "Adenosine receptor A1", "result": "> 30", "unit": "µM"}]}
{"compound": "COc1ccc(C(=O)c2ccccc2)c(O)c1", "note": "[OXYBENZONE]", "values": [{"measurement": "AC50", "setting": "Adenosine receptor A1", "result": "> 30", "unit": "µM"}, {"measurement": "AC50", "setting": "[1]", "result": "> 30", "unit": "µM"}, {"measurement": "AC50", "setting": "Cannabinoid receptor 1", "result": "> 30", "unit": "µM"}, {"measurement": "AC50", "setting": "[5]", "result": "> 30", "unit": "µM"}, {"measurement": "AC50", "setting": "[7]", "result": "> 30", "unit": "µM"}, {"measurement": "AC50", "setting": "[8]", "result": "> 30", "unit": "µM"}, {"measurement": "AC50", "setting": "[9]", "result": "> 30", "unit": "µM"}, {"measurement": "AC50", "setting": "D(3) dopamine receptor", "result": "> 30", "unit": "µM"}]}
{"compound": "O=C1Nc2ccccc2C1(c1ccc(O)cc1)c1ccc(O)cc1", "note": "[OXYPHENISATINE]", "values": [{"measurement": "AC50", "setting": "Adenosine receptor A1", "result": "> 30", "unit": "µM"}]}
{"compound": "OC(CN1CCCCC1)c1cc(-c2ccccc2)on1", "note": "(centres undefined) [PERISOXAL]", "values": [{"measurement": "AC50", "setting": "Adenosine receptor A1", "result": "> 30", "unit": "µM"}]}
{"compound": "CC(=O)O[C@]1(C(C)=O)CC[C@H]2[C@@H]3CCC4=CC(=O)CCC4=C3[C@@H](c3ccc(N(C)C)cc3)C[C@@]21C", "note": "[ULIPRISTAL ACETATE]", "values": [{"measurement": "AC50", "setting": "Adenosine receptor A1", "result": "> 30", "unit": "µM"}]}
